Experimental findings from patent publication US7179825B2, “Retinoic acid mimetic anilides” (Janssen Pharmaceutica N.V., priority 1997, dated 2007) are described below.

In test [1] the test system is metabolism of retinoic acid in human breast cancer cells. In words: Inhibition of retinoic acid (RA) metabolism (Example C.1). As to conditions: MCF-7 human breast cancer cells, 3H-RA as substrate; concentration needed to reduce the amount of metabolites to 50% of the control. The test is classed as cell-based. The procedure, abridged:
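MCF-7 cells, pre-stimulated with RA the day before, incubated with ³H-RA substrate and test compound in 1% DMSO. Polar ³H-metabolites separated from unmetabolized RA and counted by scintillation. IC50 is the concentration cutting metabolite formation to 50% of control, with blank run alongside.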

In another test the test system is Ovariectomized rats. In words: Vaginal keratinization test on ovariectomized rats (Example C.2). It counts as in vivo. The note with it: estradiol undecylate induced keratinization, per os once daily on days 1-3, active dose = 50% of rats show complete suppression. The procedure, abridged:
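Ovariectomized rats given s.c. estradiol undecylate (100 μg per 100 g body weight in sesame oil), then oral compound once daily on days 1-3 (vehicle PEG 200). Vaginas assessed histologically one day after last dose; lowest active dose (mg/kg) is the dose giving complete keratinization suppression in 50% of rats.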

As a reminder, the IC50 is the point on the concentration scale where inhibition reaches its midpoint.

SMILES strings stand for the structures. Where only a bound is given, the exact number is not on record here.

As for `O=C(Nc1ccc(C(c2ccccc2)n2ccnc2)cc1)c1cnccn1` (racemic) [Compound 424], the IC50 in test [1] was above 100 nM. The “LAD (lowest active dose)” value with Ovariectomized rats is above 10.00 mg/kg.

With `CCC(CC)C(c1ccc(N(C)C(=O)Cc2ccc(OC)c(OC)c2)cc1)n1ccnc1` (racemic) [Compound 427], in test [1], the IC50 was 8.34 nM. Moreover, the “LAD (lowest active dose)” value in the test on Ovariectomized rats is on record as 2.50 mg/kg.

Take `CN(C)CC(c1ccc(NC(=O)Oc2ccccc2)cc1)n1ccnc1` (racemic) [Compound 435]: in test [1], the IC50 is 2.8 nM. For the same compound, in the test on Ovariectomized rats, the “LAD (lowest active dose)” value is recorded as above 2.50 mg/kg.

In the case of `CC(=Cc1ccccc1)C(=O)Nc1ccc(C(c2ccccc2)n2ccnc2)cc1` (racemic) [Compound 445], the IC50 in test [1] turned out to be 192 nM. In addition, in the test on Ovariectomized rats, the “LAD (lowest active dose)” value was above 20.00 mg/kg.

As for `C/C(=C\c1ccccc1)C(=O)Nc1ccc(C(C(C)C)n2ccnc2)cc1` (racemic) [Compound 455], the IC50 in test [1] worked out at 2.87 nM. In the test with Ovariectomized rats, the “LAD (lowest active dose)” value was found to be 2.50 mg/kg.

Regarding `Cc1ccccc1C(=Cc1ccccc1)C(=O)Nc1ccc(C(C(C)C)n2ccnc2)cc1` (racemic) [Compound 456], in test [1], the IC50 is 140 nM. In addition, the “LAD (lowest active dose)” value in the test with Ovariectomized rats is reported as above 20.00 mg/kg.

As for `CCC(=Cc1ccccc1)C(=O)Nc1ccc(C(C(C)C)n2ccnc2)cc1` (racemic) [Compound 457], in test [1], the IC50 came out at 25 nM. The “LAD (lowest active dose)” value in the test with Ovariectomized rats was above 20.00 mg/kg.

Turning to `CCC(c1ccc(NC(=O)/C(C)=C/c2ccccc2)cc1)n1ccnc1` (racemic) [Compound 460], the IC50 in test [1] was 36.3 nM. In addition, the “LAD (lowest active dose)” value in the test with Ovariectomized rats is above 20.00 mg/kg.

`CC(C)C(c1ccc(NC(=O)C(F)=Cc2ccccc2)cc1)n1ccnc1` (racemic) [Compound 461]: the IC50 in test [1] was 16.9 nM. Besides, the “LAD (lowest active dose)” value in the test on Ovariectomized rats was determined as 10.00 mg/kg.

Regarding `CCCCC(c1ccc(NC(=O)/C(C)=C/c2ccccc2)cc1)n1ccnc1` (racemic) [Compound 462], in test [1], the IC50 was above 1000 nM. In addition, the “LAD (lowest active dose)” value with Ovariectomized rats amounted to 20.00 mg/kg.

On to `C/C(=C\c1ccccc1)C(=O)Nc1ccc(C(C2CCCCC2)n2ccnc2)cc1` (racemic) [Compound 463], for which the half-maximal inhibitory concentration (IC50) in test [1] was 24.5 nM. Moreover, the “LAD (lowest active dose)” value with Ovariectomized rats was determined as 20.00 mg/kg.

Take `CCC/C(=C\c1ccccc1)C(=O)Nc1ccc(C(C(C)C)n2ccnc2)cc1` (racemic) [Compound 464]: the IC50 in test [1] was determined as 149 nM. The “LAD (lowest active dose)” value in the test with Ovariectomized rats was above 20.00 mg/kg.

For `CCCC/C(=C\c1ccccc1)C(=O)Nc1ccc(C(C(C)C)n2ccnc2)cc1` (racemic) [Compound 465], the IC50 in test [1] came out at 50.4 nM. The “LAD (lowest active dose)” value in the test on Ovariectomized rats was above 20.00 mg/kg.

On to `C/C(=C\c1ccccc1)C(=O)Nc1ccc(C(C)n2ccnc2)cc1` (racemic) [Compound 466], for which the half-inhibitory concentration (IC50) in test [1] is above 1000 nM. Besides, the “LAD (lowest active dose)” value in the test on Ovariectomized rats is recorded as above 20.00 mg/kg.

Regarding `CCCC(c1ccc(NC(=O)/C(C)=C/c2ccccc2)cc1)n1ccnc1` (racemic) [Compound 467], the IC50 in test [1] stood at 2.58 nM. Moreover, the “LAD (lowest active dose)” value with Ovariectomized rats is listed as above 20.00 mg/kg.

Take `O=C(Nc1ccc(C(C2CCCCC2)n2ccnc2)cc1)/C(=C/c1ccccc1)c1ccccc1` (racemic) [Compound 468]: the IC50 in test [1] is above 100 nM. For the same compound, the “LAD (lowest active dose)” value in the test with Ovariectomized rats was determined as 10.00 mg/kg.

For the compound `C/C(=C\c1ccccc1)C(=O)Nc1ccc(C(C2CC2)n2ccnc2)cc1` (racemic) [Compound 469], the IC50 in test [1] is above 100 nM. Besides, the “LAD (lowest active dose)” value with Ovariectomized rats was above 10.00 mg/kg.

Regarding `C/C(=C\c1ccccc1)C(=O)Nc1ccc(C(C2CCCC2)n2ccnc2)cc1` (racemic) [Compound 470], the IC50 in test [1] was found to be 18.7 nM. Further, the “LAD (lowest active dose)” value with Ovariectomized rats is listed as above 20.00 mg/kg.

Turning to `CC(C)C(c1ccc(NC(=O)C(=Cc2ccccc2)C2CCCC2)cc1)n1ccnc1` (racemic) [Compound 472], in test [1], the IC50 came to 95.1 nM. For the same compound, the “LAD (lowest active dose)” value with Ovariectomized rats is recorded as above 20.00 mg/kg.

Turning to `CC(C)C(c1ccc(NC(=O)/C(=C/c2ccccc2)C2CCCCC2)cc1)n1ccnc1` (racemic) [Compound 473], the IC50 in test [1] was above 100 nM. Besides, the “LAD (lowest active dose)” value in the test on Ovariectomized rats is on record as above 10.00 mg/kg.

Regarding `C/C(=C\c1ccccc1)C(=O)Nc1ccc(C(CC(C)C)n2ccnc2)cc1` (racemic) [Compound 474], in test [1], the half-maximal inhibitory concentration (IC50) was 15.9 nM. The “LAD (lowest active dose)” value with Ovariectomized rats is above 10.00 mg/kg.

For `C/C(=C\c1ccccc1)C(=O)Nc1ccc(C(C2COCOC2)n2ccnc2)cc1` (racemic) [Compound 477], the IC50 in test [1] is above 1000 nM. The “LAD (lowest active dose)” value in the test on Ovariectomized rats is above 10.00 mg/kg.

Turning to `CCC(CC)C(c1ccc(NC(=O)/C(C)=C/c2ccccc2)cc1)n1ccnc1` (racemic) [Compound 478], in test [1], the IC50 was determined as 1.63 nM. The “LAD (lowest active dose)” value in the test with Ovariectomized rats amounted to 2.50 mg/kg.

For `C/C(=C\c1ccccc1)C(=O)Nc1ccc(C(n2ccnc2)C(C)(C)C)cc1` (racemic) [Compound 481], the IC50 in test [1] is 2.83 nM. In addition, in the test on Ovariectomized rats, the “LAD (lowest active dose)” value is given as 10.00 mg/kg.

For `C/C(=C\c1ccccc1)C(=O)Nc1ccc(C(C(c2ccccc2)c2ccccc2)n2ccnc2)cc1` (racemic) [Compound 485], in test [1], the IC50 is above 100 nM. In addition, the “LAD (lowest active dose)” value in the test on Ovariectomized rats is given as 5.00 mg/kg.

With `O=C(/C=C/c1ccccc1)Nc1ccc(C(c2ccccc2)n2ccnc2)cc1` (racemic) [Compound 497], the IC50 in test [1] worked out at 37.6 nM. Also, the “LAD (lowest active dose)” value with Ovariectomized rats is recorded as above 20.00 mg/kg.

Turning to `CC(C)C(c1ccc(NC(=O)/C=C/c2ccccc2)cc1)n1ccnc1` (racemic) [Compound 502], the IC50 in test [1] turned out to be 32.9 nM. For the same compound, in the test with Ovariectomized rats, the “LAD (lowest active dose)” value was determined as 5.00 mg/kg.

As for `CC(C)C(c1ccc(NC(=O)C=C(c2ccccc2)c2ccccc2)cc1)n1ccnc1` (racemic) [Compound 511], the IC50 in test [1] worked out at 10.5 nM. Further, the “LAD (lowest active dose)” value with Ovariectomized rats is recorded as above 20.00 mg/kg.

Consider `CC(=CC(=O)Nc1ccc(C(c2ccc(Cl)cc2)n2ccnc2)cc1)c1ccccc1` (racemic) [Compound 512], for which the IC50 in test [1] was 616 nM. Besides, the “LAD (lowest active dose)” value in the test on Ovariectomized rats is above 20.00 mg/kg.

Regarding `CCCCC(=CC(=O)Nc1ccc(C(c2ccc(Cl)cc2)n2ccnc2)cc1)c1ccccc1` (racemic) [Compound 513], in test [1], the 50% inhibitory concentration (IC50) was 860 nM. Moreover, in the test on Ovariectomized rats, the “LAD (lowest active dose)” value is listed as above 20.00 mg/kg.

As to `C/C=C(\C)C(=O)Nc1ccc(C(C(C)C)n2ccnc2)cc1` (racemic) [Compound 574], the IC50 in test [1] came to 1.78 nM. For the same compound, the “LAD (lowest active dose)” value in the test on Ovariectomized rats was found to be 20.00 mg/kg.

With `C/C(=C\c1cccnc1)C(=O)Nc1ccc(C(C(C)C)n2ccnc2)cc1` (racemic) [Compound 575], in test [1], the half-inhibitory concentration (IC50) is 25.7 nM. For the same compound, in the test on Ovariectomized rats, the “LAD (lowest active dose)” value was 20.00 mg/kg.

For the compound `C/C(=C\c1cccc(Cl)c1)C(=O)Nc1ccc(C(C(C)C)n2ccnc2)cc1` (racemic) [Compound 577], the IC50 in test [1] is 42.3 nM. Further, the “LAD (lowest active dose)” value in the test with Ovariectomized rats is recorded as 10.00 mg/kg.

Take `CC(=Cc1cccc(C(F)(F)F)c1)C(=O)Nc1ccc(C(C(C)C)n2ccnc2)cc1` (racemic) [Compound 578]: the IC50 in test [1] was 7.67 nM. The “LAD (lowest active dose)” value in the test on Ovariectomized rats was above 10.00 mg/kg.

With `CC(=Cc1ccc(Cl)cc1)C(=O)Nc1ccc(C(C(C)C)n2ccnc2)cc1` (racemic) [Compound 579], the IC50 in test [1] was 12.4 nM. The “LAD (lowest active dose)” value in the test on Ovariectomized rats was found to be 10.00 mg/kg.

Take `COc1ccc(/C=C(\C)C(=O)Nc2ccc(C(C(C)C)n3ccnc3)cc2)cc1` (racemic) [Compound 582]: the IC50 in test [1] worked out at 1.58 nM. In the test with Ovariectomized rats, the “LAD (lowest active dose)” value was above 10.00 mg/kg.

`C/C(=C\c1ccc(F)cc1)C(=O)Nc1ccc(C(C(C)C)n2ccnc2)cc1` (racemic) [Compound 583]: in test [1], the IC50 worked out at 2.78 nM. For the same compound, in the test on Ovariectomized rats, the “LAD (lowest active dose)” value was 10.00 mg/kg.

With `C/C(=C\c1ccccc1F)C(=O)Nc1ccc(C(C(C)C)n2ccnc2)cc1` (racemic) [Compound 585], the IC50 in test [1] is 7.21 nM. Also, the “LAD (lowest active dose)” value with Ovariectomized rats is on record as 10.00 mg/kg.

In the case of `CC(=Cc1cccc(F)c1)C(=O)Nc1ccc(C(C(C)C)n2ccnc2)cc1` (racemic) [Compound 586], in test [1], the IC50 turned out to be 3.74 nM. Further, the “LAD (lowest active dose)” value with Ovariectomized rats is reported as above 10.00 mg/kg.

For `CC(=CCCc1ccccc1)C(=O)Nc1ccc(C(C(C)C)n2ccnc2)cc1` (racemic) [Compound 587], in test [1], the IC50 was 31.6 nM. Moreover, the “LAD (lowest active dose)” value in the test on Ovariectomized rats is above 10.00 mg/kg.

Consider `C/C(=C\Cc1ccccc1)C(=O)Nc1ccc(C(C(C)C)n2ccnc2)cc1` (racemic) [Compound 589], for which, in test [1], the IC50 turned out to be 2.75 nM. Besides, the “LAD (lowest active dose)” value with Ovariectomized rats was 10.00 mg/kg.

For `C/C(=C\c1ccc2ncccc2c1)C(=O)Nc1ccc(C(C(C)C)n2ccnc2)cc1` (racemic) [Compound 590], in test [1], the IC50 stood at 2.78 nM. Also, the “LAD (lowest active dose)” value in the test with Ovariectomized rats is recorded as above 10.00 mg/kg.

On to `C/C(=C\c1ccc2ccccc2c1)C(=O)Nc1ccc(C(C(C)C)n2ccnc2)cc1` (racemic) [Compound 591], for which the IC50 in test [1] is 40.1 nM. Besides, in the test with Ovariectomized rats, the “LAD (lowest active dose)” value is reported as above 10.00 mg/kg.

With `C/C(=C\c1ccnc2ccccc12)C(=O)Nc1ccc(C(C(C)C)n2ccnc2)cc1` (racemic) [Compound 592], the IC50 in test [1] was determined as 4.15 nM. The “LAD (lowest active dose)” value in the test on Ovariectomized rats is above 10.00 mg/kg.

As for `C/C(=C\c1cccc2ccccc12)C(=O)Nc1ccc(C(C(C)C)n2ccnc2)cc1` (racemic) [Compound 593], in test [1], the IC50 came to 2.7 nM. Besides, in the test on Ovariectomized rats, the “LAD (lowest active dose)” value is above 10.00 mg/kg.

With `C/C(=C\c1ccco1)C(=O)Nc1ccc(C(C(C)C)n2ccnc2)cc1` (racemic) [Compound 594], in test [1], the IC50 is 4.81 nM. In addition, in the test with Ovariectomized rats, the “LAD (lowest active dose)” value is listed as above 10.00 mg/kg.

Consider `C/C(=C\c1cccs1)C(=O)Nc1ccc(C(C(C)C)n2ccnc2)cc1` (racemic) [Compound 595], for which the IC50 in test [1] was 3.83 nM. The “LAD (lowest active dose)” value in the test on Ovariectomized rats is listed as 10.00 mg/kg.
